Ends that are not written are not given here.
Assay: Stability of KDIP in mouse serum in vitro (LC-MS/MS)
Assay type: in vitro ADME
Conditions: 10 pmol KDIP spiked to 10 μl serum, room temperature, 0-160 min (7 times), LC-MS/MS MRM, n=3 per time
Protocol: Experiment for stability in serum was conducted with seven different incubation time (0, 5, 10, 20, 40, 80, 160 min). KDIP 10 pmol was spiked to 10 μl of serum, and samples were incubated at room temperature. Samples for each incubation time were triplicated.
Peptide extraction from serum or tissue lysate was performed by solid‐phase extraction using Oasis HLB Cartridge 1‐cm^3 (30 mg). HLB cartridges were conditioned using ACN (1 ml) and 50% ACN, .5% FA (1 ml), followed by equilibration using .5% FA (2 ml). A volume of 10‐μl serum and 20 μl of tissue lysate were added by .5% FA to be 1 ml and were loaded on equilibrated cartridges. […]
Each sample was analysed using an Agilent 1100 Series high‐performance liquid chromatography pump (Agilent Technologies, USA) coupled to an LTQ linear ion trap mass spectrometer (Thermo Finnigan, USA). […] Peptide was quantified by multiple reaction monitoring (MRM) in positive ion mode, with a spray voltage of 2.3 kV. […] Furthermore, truncated forms ([…], […]) of KDIP that were detected during stability test were also analysed by following transitions: 468.5 → 404.8 (b16 ^+5), 468.5 → 444.85 (b18 ^+5), 468.5 → 505.7 (b16 ^+4), 468.5 → 551.35 (b18 + H2O^+4), 468.5 → 555.7 (b18 ^+4), 528.45 → 448.85 (b14 ^+4), 528.45 → 499.0 (b16 ^+4), 528.45 → 598.15 (b14 ^+3), 528.45 → 659.25 (b16 + H2O^+3) and 528.45 → 664.95 (b16 ^+3). […]

terminal half-life in mouse serum in vitro: 30.86 min
Sequence: YARVRRRGPRRWRLVSDEAV [KDIP]
